{"source": "patent US20070010489A1", "about": "(priority 2002, published 2007)", "key": {"[1]": {"system": "wild-type HIV-1 strain IIIB", "experiment": "microbe, parasite or virus in culture", "format": "cell-based"}, "[2]": {"system": "mutant HIV-1 with I84V/L90M mutations", "experiment": "microbe, parasite or virus in culture", "format": "cell-based"}, "[3]": {"target": "T1, recombinant HIV-1 protease (Human immunodeficiency virus type 1 group M subtype B, UniProt P04585)", "T1 construct": "Enzyme: recombinant HIV-1 protease expressed in E. Coli; purchased Bachem California, Inc. H-9040; host or cells: E. coli", "experiment": "biochemical"}, "84V90M": {"target": "84V90M (Human immunodeficiency virus type 1 group M subtype B, UniProt P04585, I572V/L578M)", "experiment": "cell-based", "design": "species or system HIV", "conditions": "Cell-based assay (MT-4)"}, "[4]": {"conditions": "Human immunodeficiency virus 1, IIIB"}, "[5]": {"conditions": "fold difference in EC50 mutant vs wild type, class symbols"}, "[6]": {"conditions": "Human immunodeficiency virus 1, IIIB, class symbols"}}, "note": "“And” between values parts separate entries of the source, which are not always exact repeats. Identical values can stand only once. Like-named read-outs stand apart in the source and are kept apart here.", "data": [{"smiles": "CC(C)CN(CC(O)C(Cc1ccc(O)cc1)NC(=O)OC1COC2OCCC12)S(=O)(=O)c1cccc(N)c1", "note": "(centres unmarked) [OH, m-NH2]", "values": [{"measurement": "EC50", "setting": "[1]; [4]", "result": "50 to 500", "unit": "nM"}]}, {"smiles": "CC(C)CN(CC(O)C(Cc1ccc(O)cc1)NC(=O)OC1COC2OCCC12)S(=O)(=O)c1ccc(N)cc1", "note": "(centres unmarked) [OH, p-NH2]", "values": [{"measurement": "EC50", "setting": "[1]; [4]", "result": "50 to 500", "unit": "nM"}]}, {"smiles": "COc1ccc(S(=O)(=O)N(CC(C)C)C[C@@H](O)[C@H](Cc2ccc(OCP(=O)(OCc3ccccc3)OCc3ccccc3)cc2)NC(=O)OC2CCOC2)cc1", "note": "(some centres unmarked) [OMe, OBn]", "values": [{"measurement": "I84V/L90M fold change", "setting": "[2]; fold change", "result": "++ (>10 to ≦30)"}, {"measurement": "EC50", "setting": "[1]; read-out: EC50", "result": "< 50", "unit": "nM"}]}, {"smiles": "CCOP(=O)(COc1ccc(CC(NC(=O)OC2CCOC2)C(O)CN(CC(C)C)S(=O)(=O)c2ccc(OC)cc2)cc1)OCC", "note": "(centres unmarked) [OMe, OEt]", "values": [{"measurement": "EC50", "setting": "[1]; read-out: EC50", "result": "< 50", "unit": "nM"}, {"measurement": "Ki", "setting": "[3]; read-out: Ki", "result": "< 10 pM and 10 to 100 pM"}]}, {"smiles": "COc1ccc(S(=O)(=O)N(CC(C)C)C[C@@H](O)[C@H](Cc2ccc(OCP(=O)(O)O)cc2)NC(=O)OC2CCOC2)cc1", "note": "(some centres unmarked) [OMe, OH]", "values": [{"measurement": "I84V/L90M fold change", "setting": "[2]; fold change", "result": "+++ (>30)"}]}, {"smiles": "COc1ccc(S(=O)(=O)N(CC(C)C)C[C@@H](O)[C@H](Cc2ccc(OCP(=O)(Oc3ccccc3)Oc3ccccc3)cc2)NC(=O)OC2CCOC2)cc1", "note": "(some centres unmarked) [OMe, phenol]", "values": [{"measurement": "I84V/L90M fold change", "setting": "[2]; fold change", "result": "+ (>3 to ≦10)"}, {"measurement": "EC50", "setting": "[1]; read-out: EC50", "result": "< 50", "unit": "nM"}, {"measurement": "Ki", "setting": "[3]; read-out: Ki", "result": "< 10", "unit": "pM"}]}, {"smiles": "CC(C)CN(C[C@@H](O)[C@H](Cc1ccccc1)NC(=O)O[C@H]1CO[C@H]2OCC[C@H]21)S(=O)(=O)c1ccc(OCP(=O)(Oc2ccccc2)O[C@@H](C)C(=O)OC(C)C)cc1", "note": "(some centres unmarked) [OPh, Lac-iPr]", "values": [{"measurement": "EC50", "setting": "[1]; [4]", "result": "500 to 5000", "unit": "nM"}]}, {"smiles": "COc1ccc(S(=O)(=O)N(CC(C)C)C[C@@H](OP(=O)(O)O)[C@H](Cc2ccccc2)NC(=O)O[C@H]2CO[C@H]3OCC[C@H]32)cc1", "note": "[Phosphate Prodrug of 94-003]", "values": [{"measurement": "EC50", "setting": "[1]; [4]", "result": "< 50", "unit": "nM"}]}, {"smiles": "CC(C)CN(C[C@@H](OP(=O)(O)O)[C@H](Cc1ccccc1)NC(=O)O[C@H]1CCOC1)S(=O)(=O)c1ccc(N)cc1", "note": "[Phosphate Prodrug of Ampenavir]", "values": [{"measurement": "EC50", "setting": "[1]; [4]", "result": "50 to 500", "unit": "nM"}]}, {"smiles": "COc1ccc(S(=O)(=O)N(CC(C)C)CC(O)C(Cc2ccc(OCP(=O)(OC(C)C)OC(C)C)cc2)NC(=O)OC2COC3OCCC23)cc1", "note": "(centres unmarked) [drawing 1768 R1=OiPr R2=OiPr]", "values": [{"measurement": "I84V/L90M fold change", "setting": "[2]; [5]", "result": "− (≦3)"}]}, {"smiles": "CCOP(=O)(OCC)c1ccc(CC(NC(=O)OC2COC3OCCC23)C(O)CN(CC(C)C)S(=O)(=O)c2ccc(OC)cc2)cc1", "note": "(centres unmarked) [drawing 1770 R1=OEt R2=OEt]", "values": [{"measurement": "I84V/L90M fold change", "setting": "[2]; [5]", "result": "− (≦3)"}, {"measurement": "EC50", "setting": "[1]; [4]", "result": "< 50", "unit": "nM"}]}, {"smiles": "COc1ccc(S(=O)(=O)N(CC(C)C)CC(O)C(Cc2ccc(P(=O)(O)O)cc2)NC(=O)OC2COC3OCCC23)cc1", "note": "(centres unmarked) [drawing 1770 R1=OH R2=OH]", "values": [{"measurement": "EC50", "setting": "[1]; [4]", "result": "> 5000", "unit": "nM"}]}, {"smiles": "COc1ccc(S(=O)(=O)N(CC(C)C)CC(O)C(Cc2ccc(OCP(=O)(NC(C)C(=O)OC(C)C)Oc3ccccc3)cc2)NC(=O)OC2COC3OCCC23)cc1", "note": "(centres unmarked) [drawing 1774 R1=OPh R2=Ala-iPr]", "values": [{"measurement": "I84V/L90M fold change", "setting": "[2]; [5]", "result": "− (≦3)"}]}, {"smiles": "COc1ccc(S(=O)(=O)N(CC(C)C)CC(O)C(Cc2ccc(OCP(=O)(OCc3ccccc3)OC(C)C(=O)OCc3ccccc3)cc2)NC(=O)OC2COC3OCCC23)cc1", "note": "(centres unmarked) [drawing 1775 R1=OBn R2=Lac-Bn]", "values": [{"measurement": "EC50", "setting": "[1]; [4]", "result": "50 to 500", "unit": "nM"}]}, {"smiles": "COC(=O)C(C)OP(=O)(COc1ccc(CC(NC(=O)OC2COC3OCCC23)C(O)CN(CC(C)C)S(=O)(=O)c2ccc(OC)cc2)cc1)Oc1ccccc1", "note": "[drawing 1775 R1=OPh R2=(R)Lac-Me]", "values": [{"measurement": "EC50", "setting": "[1]; [6]", "result": "< 50", "unit": "nM"}]}, {"smiles": "CCOP(=O)(CCNCc1ccc(CC(NC(=O)OC2COC3OCCC23)C(O)CN(CC(C)C)S(=O)(=O)c2ccc(OC)cc2)cc1)OCC", "note": "(centres unmarked) [drawing 1779 R1=Et R2=Et]", "values": [{"measurement": "EC50", "setting": "[1]; [4]", "result": "< 50", "unit": "nM"}]}, {"smiles": "CCOP(=O)(CON=Cc1ccc(CC(NC(=O)OC2COC3OCCC23)C(O)CN(CC(C)C)S(=O)(=O)c2ccc(OC)cc2)cc1)OCC", "note": "(centres unmarked) [drawing 1781 R1=Et R2=Et]", "values": [{"measurement": "EC50", "setting": "[1]; [4]", "result": "< 50", "unit": "nM"}]}, {"smiles": "COc1ccc(S(=O)(=O)N(CC(C)C)CC(O)C(Cc2ccc(NCP(=O)(NC(C)C(=O)OC(C)C)Oc3ccccc3)cc2)NC(=O)OC2COC3OCCC23)cc1", "note": "(centres unmarked) [drawing 1820]", "values": [{"measurement": "EC50", "setting": "[1]; [6]", "result": "< 50", "unit": "nM"}]}, {"smiles": "COc1ccc(S(=O)(=O)N(CC(C)C)CC(O)C(Cc2ccc(NCP(=O)(NC(C)C(=O)OC(C)C)Oc3ccccc3)cc2)NC(=O)OC2COC3OCCC23)cc1", "note": "(centres unmarked) [drawing 1821]", "values": [{"measurement": "EC50", "setting": "[1]; class symbols", "result": "50 to 500", "unit": "nM"}]}, {"smiles": "COc1ccc(S(=O)(=O)N(CC(C)C)CC(O)C(Cc2ccc(NCP(=O)(NC(C)C(=O)OC(C)C)Oc3ccccc3)cc2)NC(=O)OC2COC3OCCC23)cc1", "note": "(centres unmarked) [drawing 1822]", "values": [{"measurement": "EC50", "setting": "[1]; class symbols", "result": "< 50", "unit": "nM"}]}, {"smiles": "CC(C)CN(CC(O)C(Cc1ccc(OCP(=O)(NC(C)C(=O)OC(C)C)Oc2ccccc2)cc1)NC(=O)OC1CCOC1)S(=O)(=O)c1ccc(N)cc1", "note": "(centres unmarked) [drawing 1864 R1=OPh R2=Ala-iPr]", "values": [{"measurement": "EC50", "setting": "[1]; [6]", "result": "50 to 500", "unit": "nM"}, {"measurement": "Ki", "setting": "[3]; Ki (pM), class symbols", "result": "10 to 100", "unit": "pM"}]}, {"smiles": "CCCCOC(=O)C(C)NP(=O)(COc1cccc(CN2C(=O)N(Cc3ccc4[nH]nc(N)c4c3)C(Cc3ccccc3)C(O)C(O)C2Cc2ccccc2)c1)NC(C)C(=O)OCCCC", "note": "(centres unmarked) [m-bis-Ala-Bu]", "values": [{"measurement": "EC50", "setting": "84V90M", "result": "> 6000", "unit": "nM"}]}, {"smiles": "CCOC(=O)C(C)NP(=O)(COc1cccc(CN2C(=O)N(Cc3ccc4[nH]nc(N)c4c3)C(Cc3ccccc3)C(O)C(O)C2Cc2ccccc2)c1)NC(C)C(=O)OCC", "note": "(centres unmarked) [m-bis-Ala-Et]", "values": [{"measurement": "EC50", "setting": "84V90M", "result": "> 6000", "unit": "nM"}]}]}
